According to US6593335B1, “Potassium channel openers” (Abbott Laboratories, priority 1997, dated 2003):

Experiments:
[1] = target: potassium channels (Sus scrofa, UniProt F1SR11); test: Functional potassium channel opening activity in isolated Landrace pig bladder strips (field-stimulated twitch); conditions: for Landrace Pig Bladder Index: ED50 for P1075 divided by ED50 for the test agonist, averaged over tissues; for Landrace Pig Bladder pD2: negative logarithm of ED50; for Emax: pig, maximal efficacy relative to P1075, field stimulation 0.05Hz, 0.5 milli-seconds at 20 volts
Method: The entire bladder was removed and ed into Krebs Ringer bicarbonate solution (composition, mM: NaCl,; dextrose, 1; KCl, 4.7; […] Propranolol (0.004 ed in all of the assays to block […]. The trigonal and dome […]. Strips 3-5 mm wide and 20 mm long were prepared from the cut in a circular fashion. The mucosal layer was removed. One end ationary glass rod and the other to a Grass FT03 transducer at a basal am. Two parallel platinum electrodes were included in the stationary ide field stimulation of 0.05Hz, 0.5 milli-seconds at 20 volts. […] Tissues were allowed to equilibrate for at least 60 minutes and primed with 80 mM KCl. A control concentration response curve (cumulative) was generated for each tissue using the potassium channel opener […] as the control agonist. […] After a 60 minute rinsing period, a concentration response curve (cumulative) was generated for the test agonist in the same fashion as that used for the control agonist […]. The maximal efficacy of each compound (expressed as % relative to […]) is reported. […] J. Physiol. 235, E97 (1980)), and agonist potencies were expressed as pD2 (the negative logarithm). Agonist potencies were also expressed as an index relative to […]. The index was calculated by dividing the ED50 for […] by the ED50 for the test agonist in a given tissue. Each tissue was used for only one test agonist, and the indices obtained from each tissue were averaged to provide an average index of potency.

SMILES | melting point | Landrace Pig Bladder Index [1] | Landrace Pig Bladder pD2 [1] | Emax [1]
O=C1CCC2=C1C(c1ccc(Cl)c([N+](=O)[O-])c1)C1=C(CCCS1(=O)=O)N2 (centres unmarked) [Example 38, 9-(4-chloro-3-nitrophenyl)-3,4,5,6,7,9-hexahydrocyclopenta[b]thiopyrano [2.3-e]pyridin-8(2H)-one, 1,1-dioxide] |  | 0.14 | 6.2 | 98%
O=C1CCC2=C1C(c1ccc(F)c(Br)c1)C1=C(CCCS1(=O)=O)N2 (centres unmarked) [Example 40, 9-(3-bromo-4-fluorophenyl)-3,4,5,6,7,9-hexahydrocyclopenta[b]thiopyrano [2.3-e]pyridin-8(2H)-one, 1,1-dioxide] |  | 0.46 | 6.9 | 98%
O=C1CCCC2=C1C(c1ccc(F)c(Br)c1)C1=C(CCS1(=O)=O)N2 (centres unmarked) [Example 43, 9-(3-bromo-4-fluoronhenyl)-2,3,5,6,7,9-hexahydrothieno [3,2-b]quinolin-8(4H)-one, 1,1-dioxide] |  | 0.41 | 6.6 | 98%
O=C1CCC2=C1C(c1ccc(Cl)c([N+](=O)[O-])c1)C1=C(CCS1(=O)=O)N2 (centres unmarked) [Example 44, 8-(4-chloro-3-nitrophenyl)-2,3,4,5,6,8-hexahydro-7H-cyclopenta[b]thieno[2,3-e]pyridin-7-one 1,1-dioxide] |  | 0.15 | 6.2 | 99%
O=[N+]([O-])c1cc(C2C3=C(CCS3(=O)=O)NC3=C2S(=O)(=O)CC3)ccc1Cl [Example 51, 8-(4-chloro-3-nitrophenyl)-2,3,4,5,6,8-hexahydrodithieno [3,2-b:2′,3′-e]pyridine, 1,1 7,7-tetraoxide] |  | 0.021 | 5.4 | 99%
O=S1(=O)CCC2=C1C(c1ccc(F)c(Br)c1)C1=C(CCS1(=O)=O)N2 [Example 53, 8-(3-bromo-4-fluorophenyl)-2,3,4,5,6,8-hexahydrodithieno [3.2-b:2′,3′-e]pyridine, 1,1,7,7-tetraoxide] |  | 0.17 | 6.6 | 100%
O=C1CCC2=C1C(c1cccc([N+](=O)[O-])c1)C1=C(CCCS1(=O)=O)N2 (centres unmarked) [Example 55, 3,4,5,6,7,9-hexahydro-9-(3-nitrophenyl)cyclopenta[b]thiopyrano [2,3-e]pyridin-8(2H)-one, 1,1-dioxide] | > 260 °C |  |  | 
O=C1CCC2=C1C(c1cccc([N+](=O)[O-])c1)C1=C(CCS1(=O)=O)N2 (centres unmarked) [Example 58, 2,3,4,5,6,8-hexahydro-8-(3-nitrophenyl)-7H-cyclopenta[b]thieno [2.3-e]pyridin-7-one, 1,1-dioxide] |  | 0.026 | 5.3 | 94%
O=[N+]([O-])c1cccc(C2C3=C(CCCS3(=O)=O)NC3=C2S(=O)(=O)CCC3)c1 [Example 59, 3,4,6,7,8,10-hexahydro-10-(3-nitrophenyl)-2H,5H-dithiopyrano [3.2-b:2′,3′-e]pyridine, 1,1,9,9-tetraoxide] | > 260 °C |  |  | 
O=C1CCC2=C1C(c1ccc(F)c(Cl)c1)C1=C(CCS1(=O)=O)N2 (centres unmarked) [Example 61, 8-(3-chloro-4-fluorophenyl)-2,3,4,5,6,8-hexahydro-7H-cyclopenta[b]thieno [2,3-e]pyridin-7-one, 1,1-dioxide] |  | 0.71 | 7.1 | 100%
N#Cc1cccc(C2C3=C(CCS3(=O)=O)NC3=C2S(=O)(=O)CC3)c1 [Example 62, 8-(3-cyanophenyl)-2,3,4,5,6,8-hexahydrodithieno [3.2-b:2′,3′-e]pyridine. 1,1,7,7-tetraoxide] | 248 °C |  |  | 
O=C1CCC2=C1C(c1cccc(Br)c1)C1=C(CCS1(=O)=O)N2 (centres unmarked) [Example 64, 8-(3-bromophenyl)-2,3,4,5,6,8-hexahydro-7H-cyclopenta[b]thieno [2,3-e]pyridin-7-one, 1,1-dioxide] | 246 °C |  |  | 
O=C1CCC2=C1C(c1cc(Br)cs1)C1=C(CCS1(=O)=O)N2 (centres unmarked) [Example 67] | 254 to 255 °C |  |  | 
O=C1CCC2=C1C(c1ccc(Br)s1)C1=C(CCS1(=O)=O)N2 (centres unmarked) [Example 68] | 246 to 247 °C |  |  | 
O=C1CCC2=C1C(c1csc([N+](=O)[O-])c1)C1=C(CCS1(=O)=O)N2 (centres unmarked) [Example 69] |  | 0.15 | 6.2 | 98%
O=C1CCC2=C1C(c1ccc(Br)c(Br)c1)C1=C(CCS1(=O)=O)N2 (centres unmarked) [Example 72] |  | 0.53 | 6.6 | 97%
CC1=C(S(C)(=O)=O)C(c2ccc(Cl)c(Cl)c2)C2=C(CCC2=O)N1 (centres unmarked) [Example 75, 4-(3,4-dichlorophenyl)-1,4,6,7-tetrahydro-2-methyl-3-(methylsulfonyl)-5H-cyclopentafblpyridin-5-one] | 218 to 220 °C |  |  | 
CC1=C(S(C)(=O)=O)C(c2ccc(Cl)c([N+](=O)[O-])c2)C2=C(CCC2=O)N1 (centres unmarked) [Example 76, 4-(4-chloro-3-nitrophenyl)-1,4,6,7-tetrahydro-2-methyl-3-,(methylsulfonyl)-5H-cyclopenta[b]pyridin-5-one] | 232 °C |  |  | 
O=C1CCC2=C1C(c1ccc(Br)cc1)C1=C(CCS1(=O)=O)N2 (centres unmarked) [Example 78] | 253 to 256 °C |  |  | 
O=C1CCC2=C1C(c1ccc(F)c(F)c1)C1=C(CCS1(=O)=O)N2 (centres unmarked) [Example 79] | > 260 °C |  |  | 
O=C1CCC2=C1C(c1ccc(Cl)c(F)c1)C1=C(CCS1(=O)=O)N2 (centres unmarked) [Example 80] | > 260 °C |  |  | 

Now from value to compound:

melting point | Landrace Pig Bladder Index [1] | Landrace Pig Bladder pD2 [1] | Emax [1] | SMILES
> 250 °C |  |  |  | O=C1CCC2=C1C(c1ccc(Cl)c(Cl)c1)C1=C(CCS1(=O)=O)N2 (single isomer, unassigned) [Example 145]
> 250 °C |  |  |  | O=C1CCC2=C1C(c1ccc(Cl)c([N+](=O)[O-])c1)C1=C(CCS1(=O)=O)N2 (single isomer, unassigned) [Example 160]
> 250 °C |  |  |  | O=C1CCCC2=C1C(c1ccc(F)c(C(F)(F)F)c1)C1=C(CCS1(=O)=O)N2 (single isomer, unassigned; (+)) [Example 138, (+)-9-[4-fluoro-3-(trifluoromethyl)phenyl]-2,3,5,6,7,9-hexahydrothieno[3,2-b]quinolin-8(4H)-one, 1,1-dioxide]
> 250 °C |  |  |  | N#Cc1cccc(C2C3=C(CCC3=O)NC3=C2S(=O)(=O)CC3)c1 (single isomer, unassigned; (-)) [Example 162]
275 to 280 °C (dec.) |  |  |  | N#Cc1cc(C2C3=C(CCS3(=O)=O)NC3=C2S(=O)(=O)CC3)ccc1F [Example 82]
 | 0.57 | 7.0 | 100% | O=C1CCCC2=C1[C@@H](c1ccc(F)c(Br)c1)C1=C(CCS1(=O)=O)N2 [Example 83, (+)-(9R)-9-(3-bromo-4-fluorophenyl)-2,3,5,6,7,9-hexahydrothieno [3.2-b]guinolin-8(4H)-one, 1,1-dioxide]
 | 0.69 | 6.8 | 100% | O=C1CCCC2=C1[C@H](c1ccc(F)c(Br)c1)C1=C(CCS1(=O)=O)N2 [Example 84, (−)-(9S)-9-(3-bromo-4-fluorophenyl)-2,3,5,6,7,9-hexahydrothieno [3,2-b]quinolin-8(4H)-one, 1,1-dioxide]
> 250 °C |  |  |  | O=C1CCCC2=C1C(c1ccc(F)c(I)c1)C1=C(CCS1(=O)=O)N2 (centres unmarked) [Example 89, 9-(4-fluoro-3-iodophenyl)-2,3,5,6,7,9-hexahydrothieno [3.2-b]quinolin-8(4H)-one, 1,1-dioxide]
> 250 °C |  |  |  | O=C1CCC2=C1C(c1ccc(F)c(I)c1)C1=C(CCS1(=O)=O)N2 (centres unmarked) [Example 90]
 | 0.075 | 4.7 | 98% | O=C1CCCC2=C1C(c1cc(Br)ccc1O)C1=C(CCS1(=O)=O)N2 (centres unmarked) [Example 108, 9-(5-bromo-2-hydroxyphenyl)-2,3,5,6,7,9-hexahydrothieno[3,2-b]quinolin-8(4H)-one 1,1-dioxide]
> 260 °C |  |  |  | Cc1cc(C2C3=C(CCCC3=O)NC3=C2S(=O)(=O)CC3)ccc1F (centres unmarked) [Example 111, 9-(4-fluoro-3-methylphenyl)-2,3,5,6,7,9-hexahydrothieno[3,2-b]quinolin-8(4H)-one, 1,1-dioxide]
 | 0.032 | 5.7 | 99% | O=S1(=O)CCC2=C1C(c1ccc(F)c(Br)c1)C=C(C(F)(F)F)N2 (centres unmarked) [Example 112, 7-(3-bromo-4-fluorophenyl)-5-(trifluoromethyl)-2,3,4,7-tetrahydrothieno [3,2-b]pyridine. 1,1-dioxide]
> 250 °C |  |  |  | O=C1CCCC2=C1C(c1cccnc1)C1=C(CCS1(=O)=O)N2 (centres unmarked) [Example 117, 9-(3-pyridinyl)-2,3,5,6,7,9-hexahydrothieno[3,2-b]quinolin-8(4H)-one, 1,1-dioxide]
 | 0.078 | 6.2 | 100% | O=C1CCCC2=C1C(c1cc(Br)c(F)cc1O)C1=C(CCS1(=O)=O)N2 (centres unmarked) [Example 121, 9-(5-bromo-4-fluoro-2-hydroxyphenyl)-2.35,6,7,9-hexahydrothieno[3.2-b]quinolin-8(4H)-one, 1,1-dioxide]
